In patent publication US11802127B2, “3,4-dihydro-2,7-naphthyridine-1,6(2H,7H)-diones as MEK inhibitors” (Pfizer Inc., priority 2021, dated 2023):
Counter-ions that a name gives are not always drawn.

target: T1, BCRP (hBCRP) (Homo sapiens, UniProt Q9UNQ0); test: Efflux ratio in BCRP transfected MDCKII canine P-gp knockout cells; type: in vitro ADME; details: Papp(B−A)/Papp(A−B), read-out: Efflux ratio MDCKII-hBCRP knock-in,canine pg-P KO
T1 construct: expressed in transfected cells; host or cells: MDCKII (canine kidney) cells, canine P-gp knockout, transfected with BCRP
T1 sequence (Q9UNQ0 1-655): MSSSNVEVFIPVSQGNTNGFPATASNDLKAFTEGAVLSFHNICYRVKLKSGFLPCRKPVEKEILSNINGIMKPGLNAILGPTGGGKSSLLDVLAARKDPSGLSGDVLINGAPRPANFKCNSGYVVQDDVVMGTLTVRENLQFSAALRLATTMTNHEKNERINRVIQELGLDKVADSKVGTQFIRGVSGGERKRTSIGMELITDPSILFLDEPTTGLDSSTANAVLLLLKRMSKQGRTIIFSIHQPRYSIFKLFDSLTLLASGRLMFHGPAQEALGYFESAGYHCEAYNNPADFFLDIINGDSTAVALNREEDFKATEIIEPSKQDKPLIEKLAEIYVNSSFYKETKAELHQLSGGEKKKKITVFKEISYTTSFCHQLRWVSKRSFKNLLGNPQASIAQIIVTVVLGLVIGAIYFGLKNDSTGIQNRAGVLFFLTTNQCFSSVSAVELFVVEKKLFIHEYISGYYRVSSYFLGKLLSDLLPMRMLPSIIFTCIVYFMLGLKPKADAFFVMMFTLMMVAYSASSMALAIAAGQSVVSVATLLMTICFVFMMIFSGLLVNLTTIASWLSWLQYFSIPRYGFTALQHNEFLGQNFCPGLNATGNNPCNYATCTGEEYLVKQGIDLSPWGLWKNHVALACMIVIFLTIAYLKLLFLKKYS
Method: BCRP transfected MDCKII canine P-gp knockout cell line was cultured and plated according to manufacturer's recommendations.
Both positive and negative controls were used to assess functionality of P-gp or BCRP efflux in the assays. Stock solutions for assay controls and the test article were prepared in DMSO for final test concentrations of 10 and 1 μM, respectively. Final organic concentration in the assay was 1%. All dosing solutions contained 10 μM lucifer yellow to monitor LLC-PK1 or MDCKII cell monolayer integrity.
For the apical to basolateral determination (A to B), 75 μL of the test article in transport buffer were added to the apical side of the individual transwells and 250 μL of basolateral media, without compound or lucifer yellow, were added to each well. For the basolateral to apical determination (B to A), 250 μL of test article in transport buffer were added to each well and 75 μL transport buffer, without compound or lucifer yellow, were added to each transwell. All tests were performed in triplicate, and each compound was tested for both apical to basolateral and basolateral to apical transport. The plates were incubated for 2 hours on a Lab-Line Instruments Titer Orbital Shaker (VWR, West Chester, PA) at 50 rpm and 37° C. with 5% CO2. All culture plates were removed from the incubator and 50 μL of media were removed from the apical and basolateral portion of each well and added to 150 μL of 1 μM labetalol in 2:1 acetonitrile (acetonitrile): H2O, v/v.
The plates were read using a Molecular Devices (Sunnyvale, CA) Gemini Fluorometer to evaluate the lucifer yellow concentrations at excitation/emission wavelengths of 425/535 nm. These values were accepted when found to be below 2% for apical to basolateral and 5% basolateral to apical flux across the MDR1-transfected LLC-PK1 or BCRP-transfected MDCKII cell monolayers. The plates were sealed and the contents of each well analyzed by LC-MS/MS. The compound concentrations were determined from the ratio of the peak areas of the compound to the internal standard (labetalol) in comparison to the dosing solution.
The LC-MS/MS system was comprised of an HTS-PAL autosampler (Leap Technologies, Carrboro, NC), an HP1200 HPLC (Agilent, Palo Alto, CA), and a MDS Sciex 4000 Q Trap system (Applied Biosystems, Foster City, CA). […] The total run time, including re-equilibration, for a single injection was 1.2 minutes. Mass spectrometric detection of the analytes was accomplished using the ion spray positive mode. Analyte responses were measured by multiple reaction monitoring (MRM) of transitions unique to each compound (the protonated precursor ion and selected product ions for each test article and m/z 329 to m/z 162 for labetalol, the internal standard).
An efflux ratio is calculated from the mean apical to basolateral (A−B) Papp data and basolateral to apical (B−A) Papp data: Efflux ratio=Papp(B−A)/Papp(A−B)

| Structure (SMILES) | efflux ratio at 2 h, 1 μM |
| --- | --- |
| Cn1c(Nc2ccc(Br)cc2F)c2c(cc1=O)C(c1ccccc1)CNC2=O (centres unmarked) [Example 64, 8-((4-bromo-2-fluorophenyl)amino)-7-methyl-4-phenyl-3,4-dihydro-2,7-naphthyridine-1,6(2H,7H)-dione] | 1.5 |

test system: ERK1/2(Thr202/Tyr204) phosphorylation (MEK-dependent) in A375 cells; test: Cellular Phospho-p44/42 MAPK (Erk1/2) (Thr202/Tyr204) Assay; type: cell-based; details: Homo sapiens, A-375, 1-hour incubation, pERK1/2 (Thr202/Tyr204) In-Cell Western normalized to GAPDH
Method: Inhibition of ERK1/2(Thr202/Tyr204) phosphorylation was determined by the following cellular assay, which comprises incubating cells with a compound for 1 hour and quantifying pERK signal by In-Cell Western on fixed cells and normalizing to GAPDH signal. A375 cells were obtained from the ATCC and grown in DMEM supplemented with 10% fetal bovine serum, penicillin/streptomycin, Glutamax®, non-essential amino acids, and sodium pyruvate. Cells were plated in 96-well plates at 30,000 cells/well and allowed to attach overnight at 37° C./5% CO2. Cells were treated with compounds prepared as a 10-point, 1:3 dilution series (range: 20 μM-0.05 nM; maximum concentration varied from 20 μM-1 μM), with a final DMSO concentration of 0.5%. Control wells contained either 0.5% DMSO alone (no inhibition control) or 1 μM of a potent control compound (complete inhibition control). After a 1-hour incubation, cells were fixed in 3.7% formaldehyde in dPBS (Dulbecco's phosphate-buffered saline) at room temperature for 20 minutes. Cells were then washed with dPBS and permeabilized in 100% MeOH at room temperature for 10 minutes. Following permeabilization, cells were washed in dPBS and incubated in LI-COR Blocking Buffer (LI-COR Biosciences, Cat #927-40000) for 1 hour or longer. Plates were then incubated with an antibody specific for the MEK-dependent ERK1/2 phosphorylation sites, threonine 202 and tyrosine 204 (Cell Signaling Technologies; Cat #9101), downstream of MEK in the MAP kinase signal transduction pathway, as well as GAPDH (Millipore; Cat #MAB374). pErk1/2 (Thr202/Tyr204) antibody was diluted in LI-COR blocking buffer containing 0.05% Tween-20 at 1:250; GAPDH was diluted at 1:2,500. The plates were incubated overnight at 4° C. After washing with PBS/0.05% Tween-20, the cells were incubated with fluorescently-labeled secondary antibodies (Anti-rabbit-Alexa Flour680, Invitrogen Cat #A21109; Anti-mouse-IRDye800CW, LI-COR Biosciences Cat #926-32210, both at 1:1000 dilution) for 1 hour. Cells were then washed, as above, and analyzed for fluorescence at both 680 and 800 nm wavelengths using the Odyssey CLx Infrared Imaging System (LI-COR Biosciences). Phosphorylated Erk1/2 (Thr202/Tyr204) signal was normalized to GAPDH signal for each well.

| Structure (SMILES) | IC50 |
| --- | --- |
| CCCc1ccc(Nc2c3c(cc(=O)n2C)CCNC3=O)c(F)c1 [Example 54, 8-((2-fluoro-4-propylphenyl)amino)-7-methyl-3,4-dihydro-2,7-naphthyridine-1,6(2H,7H)-dione] | 167 nM |
| Cn1c(Nc2ccccc2F)c2c(c(I)c1=O)CCN(OCCO)C2=O [Example 41, 8-((2-fluorophenyl)amino)-2-(2-hydroxyethoxy)-5-iodo-7-methyl-3,4-dihydro-2,7-naphthyridine-1,6(2H,7H)-dione] | 74 nM |
| Cn1c(Nc2ccc(OC(F)(F)F)cc2F)c2c(cc1=O)CCN(OCCO)C2=O [Example 24, 8-((2-fluoro-4-(trifluoromethoxy)phenyl)amino)-2-(2-hydroxyethoxy)-7-methyl-3,4-dihydro-2,7-naphthyridine-1,6(2H,7H)-dione] | 466 nM |
| Cc1c2c(c(Nc3ccc(OC(F)F)cc3F)n(C)c1=O)C(=O)NCC2 [Example 58, 8-((4-(difluoromethoxy)-2-fluorophenyl)amino)-5,7-dimethyl-3,4-dihydro-2,7-naphthyrdine-1,6(2H,7H)-dione] | 45 nM |
| CSc1ccc(Nc2c3c(cc(=O)n2C)CCN(OCC(F)F)C3=O)c(F)c1 [Example 63, 2-(2,2-difluoroethoxy)-8-((2-fluoro-4-(methylthio)phenyl)amino)-7-methyl-3,4-dihydro-2,7-naphthyridine-1,6(2H,7H)-dione] | 114 nM |
| Cn1c(Nc2ccc(SC(F)(F)F)cc2F)c2c(cc1=O)CCN(OCCO)C2=O [Example 17, 8-((2-fluoro-4-((trifluoromethyl)thio)phenyl)amino)-2-(2-hydroxyethoxy)-7-methyl-3,4-dihydro-2,7-naphthyridine-1,6(2H,7H)-dione] | 256 nM |
| Cc1c2c(c(Nc3ccc(Br)cc3F)n(C)c1=O)C(=O)N(OC[C@@H](C)O)CC2 [Example 35, (R)-8-((4-bromo-2-fluorophenyl)amino)-2-(2-hydroxypropoxy)-5,7-dimethyl-3,4-dihydro-2,7-naphthyridine-1,6(2H,7H)-dione] | 229 nM |
| COc1ccc(Nc2c3c(cc(=O)n2C)CCN(OCCO)C3=O)c(F)c1 [Example 16, 8-((2-fluoro-4-methoxyphenyl)amino)-2-(2-hydroxyethoxy)-7-methyl-3,4-dihydro-2,7-naphthyridine-1,6(2H,7H)-dione] | 274 nM |
| Cc1c2c(c(Nc3ccccc3F)n(C)c1=O)C(=O)N(OCCO)CC2Br (centres unmarked) [Example 43, 4-bromo-8-((2-fluorophenyl)amino)-2-(2-hydroxyethoxy)-5,7-dimethyl-3,4-dihydro-2,7-naphthyridine-1,6(2H,7H)-dione] | 155 nM |
| Cn1c(Nc2ccc(Br)c(Cl)c2F)c2c(cc1=O)CCN(OCCO)C2=O [Example 12, 8-((4-bromo-3-chloro-2-fluorophenyl)amino)-2-(2-hydroxyethoxy)-7-methyl-3,4-dihydro-2,7-naphthyridine-1,6(2H,7H)-dione] | 1060 nM |
| Cn1c(Nc2ccc(Br)cc2F)c2c(cc1=O)CCN(CCO)C2=O [Example 60, 8-((4-bromo-2-fluorophenyl)amino)-2-(2-hydroxyethyl)-7-methyl-3,4-dihydro-2,7-naphthyridine-1,6(2H,7H)-dione trifluoroacetate] | 508 nM |
| Cn1c(Nc2ccc(Br)cc2Cl)c2c(cc1=O)CCNC2=O [Example 59, 8-((4-bromo-2-chlorophenyl)amino)-7-methyl-3,4-dihydro-2,7-naphthyridine-1,6(2H,7H)-dione] | 72 nM |
| Cn1c(Nc2ccc(Br)c(F)c2F)c2c(cc1=O)CCN(OCCO)C2=O [Example 11, 8-((4-bromo-2,3-difluorophenyl)amino)-2-(2-hydroxyethoxy)-7-methyl-3,4-dihydro-2,7-naphthyridine-1,6(2H,7H)-dione] | 199 nM |
| Cn1c(Nc2ccc(Br)cc2F)c2c(cc1=O)C(c1ccccc1)CNC2=O (centres unmarked) [Example 64, 8-((4-bromo-2-fluorophenyl)amino)-7-methyl-4-phenyl-3,4-dihydro-2,7-naphthyridine-1,6(2H,7H)-dione] | 2 nM |
| CC(=O)c1ccc(Nc2c3c(cc(=O)n2C)CCN(OCCO)C3=O)c(F)c1 [Example 20, 8-((4-acetyl-2-fluorophenyl)amino)-2-(2-hydroxyethoxy)-7-methyl-3,4-dihydro-2,7-naphthyridine-1,6(2H,7H)-dione] | 632 nM |
| Cn1c(Nc2ccc(Br)cc2F)c2c(cc1=O)CCN(OCC1CC1)C2=O [Example 2, 8-((4-bromo-2-fluorophenyl)amino)-2-(cyclopropylmethoxy)-7-methyl-3,4-dihydro-2,7-naphthyridine-1,6(2H,7H)-dione] | 1030 nM |
| C[C@@H](O)CON1CCc2cc(=O)n(C)c(Nc3ccc(Br)cc3F)c2C1=O [Example 34, (R)-8-((4-bromo-2-fluorophenyl)amino)-2-(2-hydroxypropoxy)-7-methyl-3,4-dihydro-2,7-naphthyridine-1,6(2H,7H)-dione] | 207 nM |
| Cn1c(Nc2ccc(I)cc2F)c2c(cc1=O)CCN(OC(C)(C)C)C2=O [Example 30, 2-(tert-butoxy)-8-((2-fluoro-4-iodophenyl)amino)-7-methyl-3,4-dihydro-2,7-naphthyridine-1,6(2H,7H)-dione] | 421 nM |
| Cn1c(Nc2ccc(C(F)(F)F)cc2F)c2c(cc1=O)CCN(OCCO)C2=O [Example 13, 8-((2-fluoro-4-(trifluoromethyl)phenyl)amino)-2-(2-hydroxyethoxy)-7-methyl-3,4-dihydro-2,7-naphthyridine-1,6(2H,7H)-dione] | 178 nM |
